Laboratory results published in PMC5218480 (PLoS ONE, 2017).

System: MV-4-11 cells
Assay: Gene expression microarray analysis (Affymetrix PrimeView) and GSEA
Format: cell-based, human
Set-up: RFU PODN (11730768_x_at) / Fold change /veh PODN (11730768_x_at) / RFU LINC00158 (11744669_a_at) / Fold change /veh LINC00158 (11744669_a_at) / RFU DUSP10 (11751237_a_at) / Fold change /veh DUSP10 (11751237_a_at) / RFU ID3 (11757404_x_at) / Fold change /veh ID3 (11757404_x_at) / RFU PLEKHG5 (11737974_s_at) / Fold change /veh PLEKHG5 (11737974_s_at) / RFU LRRC4B (11730491_at) / Fold change /veh LRRC4B (11730491_at) / RFU GIMAP4 (11747438_a_at) / Fold change /veh GIMAP4 (11747438_a_at) / RFU KRT8 (11758183_x_at) / Fold change /veh KRT8 (11758183_x_at) / RFU CNN1 (11734310_a_at) / Fold change /veh CNN1 (11734310_a_at) / RFU VPS37D (11726825_at) / Fold change /veh VPS37D (11726825_at) / RFU C10orf10 (11716522_x_at) / Fold change /veh C10orf10 (11716522_x_at) / RFU KIR2DL2 /// KIR2DL4 /// KIR2DL5A /// KIR2DL5B /// KIR2DS1 /// KIR2DS2 /// KIR2DS3 /// KIR2DS4 /// KIR3DL3 /// KIR3DL3 /// KIR3DS1 (11738374_at) / Fold change /veh KIR2DL2 /// KIR2DL4 /// KIR2DL5A /// KIR2DL5B /// KIR2DS1 /// KIR2DS2 /// KIR2DS3 /// KIR2DS4 /// KIR3DL3 /// KIR3DL3 /// KIR3DS1 (11738374_at) / RFU C1QL1 (11718748_at) / Fold change /veh C1QL1 (11718748_at) / RFU TMPRSS4 (11747572_a_at) / Fold change /veh TMPRSS4 (11747572_a_at) / RFU HAMP (11756126_x_at) / Fold change /veh HAMP (11756126_x_at) / RFU RNFT2 (11725882_a_at) / Fold change /veh RNFT2 (11725882_a_at) / RFU NR4A2 (11747474_a_at) / Fold change /veh NR4A2 (11747474_a_at) / RFU ABCC12 (11746883_a_at) / Fold change /veh ABCC12 (11746883_a_at) / RFU TMEM136 (11760407_x_at) / Fold change /veh TMEM136 (11760407_x_at) / RFU CLDN22 /// WWC2 (11732394_at) / Fold change /veh CLDN22 /// WWC2 (11732394_at) / RFU HLA-DPB1 (11760878_x_at) / Fold change /veh HLA-DPB1 (11760878_x_at) / RFU SPINT1 (11716480_a_at) / Fold change /veh SPINT1 (11716480_a_at) / RFU GAP43 (11754022_s_at) / Fold change /veh GAP43 (11754022_s_at) / RFU A4GNT (11735810_at) / Fold change /veh A4GNT (11735810_at) / RFU PRB3 (11715151_x_at) / Fold change /veh PRB3 (11715151_x_at) / RFU TUBB4B (11761932_at) / Fold change /veh TUBB4B (11761932_at) / RFU CAPN14 (11732068_a_at) / Fold change /veh CAPN14 (11732068_a_at) / RFU TMCC2 (11721928_a_at) / Fold change /veh TMCC2 (11721928_a_at) / RFU IRGQ (11745062_a_at) / Fold change /veh IRGQ (11745062_a_at) / RFU FAM174B (11720279_a_at) / Fold change /veh FAM174B (11720279_a_at) / RFU TMPRSS4 (11748680_a_at) / Fold change /veh TMPRSS4 (11748680_a_at) / RFU FAM212B (11763350_a_at) / Fold change /veh FAM212B (11763350_a_at) / RFU PLEKHG5 (11743358_a_at) / Fold change /veh PLEKHG5 (11743358_a_at) / RFU ZSCAN30 (11745921_a_at) / Fold change /veh ZSCAN30 (11745921_a_at) / RFU CMKLR1 (11741424_a_at) / Fold change /veh CMKLR1 (11741424_a_at) / RFU LOC101060620 /// MAPK8IP1 (11723275_at) / Fold change /veh LOC101060620 /// MAPK8IP1 (11723275_at) / RFU SPTSSB (11747773_x_at) / Fold change /veh SPTSSB (11747773_x_at) / RFU PRSS12 (11739890_at) / Fold change /veh PRSS12 (11739890_at) / RFU BIN1 (11741810_x_at) / Fold change /veh BIN1 (11741810_x_at) / RFU WNT11 (11732464_a_at) / Fold change /veh WNT11 (11732464_a_at) / RFU C10orf10 (11716521_a_at) / Fold change /veh C10orf10 (11716521_a_at) / RFU C5orf56 (11738089_at) / Fold change /veh C5orf56 (11738089_at) / RFU CYB561 (11721691_x_at) / Fold change /veh CYB561 (11721691_x_at) / RFU ANKRD19P (11752326_a_at) / Fold change /veh ANKRD19P (11752326_a_at) / RFU OR2T12 /// OR2T33 /// OR2T8 (11738714_s_at) / Fold change /veh OR2T12 /// OR2T33 /// OR2T8 (11738714_s_at) / RFU VCAN (11748164_a_at) / Fold change /veh VCAN (11748164_a_at) / RFU JSRP1 (11732532_at) / Fold change /veh JSRP1 (11732532_at) / RFU KRTAP10-11 (11738290_x_at) / Fold change /veh KRTAP10-11 (11738290_x_at) / RFU MYO3A (11730013_a_at) / Fold change /veh MYO3A (11730013_a_at) / RFU EBF3 (11725865_a_at) / Fold change /veh EBF3 (11725865_a_at) / RFU CAMK2N1 (11719241_x_at) / Fold change /veh CAMK2N1 (11719241_x_at) / RFU C5orf56 (11738088_a_at) / Fold change /veh C5orf56 (11738088_a_at) / RFU OLFML3 (11715873_a_at) / Fold change /veh OLFML3 (11715873_a_at) / RFU LOC100653217 /// NTM (11731650_a_at) / Fold change /veh LOC100653217 /// NTM (11731650_a_at) / RFU MAPK11 (11762145_a_at) / Fold change /veh MAPK11 (11762145_a_at) / RFU FIZ1 (11724087_x_at) / Fold change /veh FIZ1 (11724087_x_at) / RFU OASL (11726364_x_at) / Fold change /veh OASL (11726364_x_at) / RFU SOX15 (11748057_x_at) / Fold change /veh SOX15 (11748057_x_at) / RFU CD79A (11719716_a_at) / Fold change /veh CD79A (11719716_a_at) / RFU HIST1H1D (11736915_at) / Fold change /veh HIST1H1D (11736915_at) / RFU CASKIN2 (11723855_a_at) / Fold change /veh CASKIN2 (11723855_a_at) / RFU LOC730098 (11760151_x_at) / Fold change /veh LOC730098 (11760151_x_at) / RFU OR4N2 (11742367_at) / Fold change /veh OR4N2 (11742367_at) / RFU PRRT2 (11749266_a_at) / Fold change /veh PRRT2 (11749266_a_at) / RFU SNX32 (11753110_a_at) / Fold change /veh SNX32 (11753110_a_at) / RFU CDHR5 (11726645_a_at) / Fold change /veh CDHR5 (11726645_a_at) / RFU RCAN1 (11760418_a_at) / Fold change /veh RCAN1 (11760418_a_at) / RFU FAM167A (11723789_a_at) / Fold change /veh FAM167A (11723789_a_at) / RFU FAM26E (11764081_at) / Fold change /veh FAM26E (11764081_at) / RFU ISYNA1 (11749810_s_at) / Fold change /veh ISYNA1 (11749810_s_at) / RFU ACY1 (11761880_at) / Fold change /veh ACY1 (11761880_at) / RFU 11764098_at / Fold change /veh 11764098_at / RFU SAMD14 (11745864_x_at) / Fold change /veh SAMD14 (11745864_x_at) / RFU NPB (11741838_a_at) / Fold change /veh NPB (11741838_a_at) / RFU TMPRSS6 (11731388_a_at) / Fold change /veh TMPRSS6 (11731388_a_at) / RFU KRTAP10-2 (11738614_at) / Fold change /veh KRTAP10-2 (11738614_at) / RFU ARHGAP8 /// PRR5-ARHGAP8 (11727945_x_at) / Fold change /veh ARHGAP8 /// PRR5-ARHGAP8 (11727945_x_at) / RFU KRTAP5-7 /// NADSYN1 (11734609_at) / Fold change /veh KRTAP5-7 /// NADSYN1 (11734609_at) / RFU RASL12 (11751679_a_at) / Fold change /veh RASL12 (11751679_a_at) / RFU CDKN2B (11736163_a_at) / Fold change /veh CDKN2B (11736163_a_at) / RFU PRF1 (11729649_at) / Fold change /veh PRF1 (11729649_at) / RFU, ZNF638 /// ZNF638-IT1 / Fold change vs veh, ZNF638 /// ZNF638-IT1 / RFU, PANK3 / Fold change vs veh, PANK3 / RFU, SH3YL1 / Fold change vs veh, SH3YL1 / RFU, ZEB2 / Fold change vs veh, ZEB2 / RFU, NRIP1 / Fold change vs veh, NRIP1 / RFU, PTTG1IP / Fold change vs veh, PTTG1IP / RFU, CAPN2 / Fold change vs veh, CAPN2 / RFU, MED14 / Fold change vs veh, MED14 / RFU, SNORA58 / Fold change vs veh, SNORA58 / RFU, C1orf63 / Fold change vs veh, C1orf63 / RFU, LRRFIP1 / Fold change vs veh, LRRFIP1 / RFU, NDUFAF7 / Fold change vs veh, NDUFAF7 / RFU, SLC12A2 / Fold change vs veh, SLC12A2 / RFU, IBTK / Fold change vs veh, IBTK / RFU, ESF1 / Fold change vs veh, ESF1 / Fold change vs veh, TMEM50B / RFU, TAOK1 / Fold change vs veh, TAOK1 / RFU, ACBD3 / Fold change vs veh, ACBD3 / RFU, TMA16 / Fold change vs veh, TMA16 / RFU, RWDD3 / Fold change vs veh, RWDD3 / RFU, BCAT1 / Fold change vs veh, BCAT1 / RFU, EDEM3 / Fold change vs veh, EDEM3 / RFU, TMEM33 / Fold change vs veh, TMEM33 / RFU, WDR75 / Fold change vs veh, WDR75 / RFU, AHCTF1 / Fold change vs veh, AHCTF1 / RFU, TFRC / Fold change vs veh, TFRC / RFU, ZDHHC17 / Fold change vs veh, ZDHHC17 / RFU, NOM1 / Fold change vs veh, NOM1 / RFU, ARL8B / Fold change vs veh, ARL8B / RFU, ZBTB11 / Fold change vs veh, ZBTB11 / RFU, TAMM41 / Fold change vs veh, TAMM41 / RFU, KIAA1704 /// LOC100996395 / Fold change vs veh, KIAA1704 /// LOC100996395 / RFU, ING1 / Fold change vs veh, ING1 / RFU, TRMT61B / Fold change vs veh, TRMT61B / RFU, FUBP3 / Fold change vs veh, FUBP3 / RFU, TP53 / Fold change vs veh, TP53 / RFU, TNKS2 / Fold change vs veh, TNKS2 / RFU, ZFP14 / Fold change vs veh, ZFP14 / RFU, ACTR2 / Fold change vs veh, ACTR2 / RFU, PPP3R1 / Fold change vs veh, PPP3R1 / RFU, PIK3R1 / Fold change vs veh, PIK3R1 / RFU, HNRNPA1 / Fold change vs veh, HNRNPA1 / RFU, RNF170 / Fold change vs veh, RNF170 / RFU, ZNF28 / Fold change vs veh, ZNF28 / RFU, RNGTT / Fold change vs veh, RNGTT / RFU, OGT / Fold change vs veh, OGT / RFU, BRD1 / Fold change vs veh, BRD1 / RFU, MARS / Fold change vs veh, MARS / RFU, ZNF655 / Fold change vs veh, ZNF655 / RFU, FAHD1 / Fold change vs veh, FAHD1 / RFU, BDP1 / Fold change vs veh, BDP1 / RFU, LRRCC1 / Fold change vs veh, LRRCC1 / RFU, ARID1A / Fold change vs veh, ARID1A / RFU, ZNF146 / Fold change vs veh, ZNF146 / RFU, ZNF330 / Fold change vs veh, ZNF330 / RFU, GPN3 / Fold change vs veh, GPN3 / RFU, C9orf123 / Fold change vs veh, C9orf123 / RFU, N4BP2L2 / Fold change vs veh, N4BP2L2 / RFU, ARFIP1 / Fold change vs veh, ARFIP1 / RFU, FAM179B / Fold change vs veh, FAM179B / RFU, BCL10 / Fold change vs veh, BCL10 / RFU, UHRF1BP1L / Fold change vs veh, UHRF1BP1L / RFU, BET1 / Fold change vs veh, BET1 / RFU, CNOT2 / Fold change vs veh, CNOT2 / RFU, ZNF268 / Fold change vs veh, ZNF268 / Fold change vs veh, ZNF507 / RFU, DGCR2 / Fold change vs veh, DGCR2 / RFU, WDSUB1 / Fold change vs veh, WDSUB1 / Fold change vs veh, HSP90B1 /// MIR3652 / RFU, ADSS / Fold change vs veh, ADSS / RFU, GK / Fold change vs veh, GK / RFU, ZNF148 / Fold change vs veh, ZNF148 / RFU, TAF9 / Fold change vs veh, TAF9 / RFU, SLC1A5 / Fold change vs veh, SLC1A5 / RFU, SLMO2 / Fold change vs veh, SLMO2 / RFU, ABCC4 / Fold change vs veh, ABCC4 / RFU, LOC101060439 /// RAP1B / Fold change vs veh, LOC101060439 /// RAP1B / RFU, RFX7 / Fold change vs veh, RFX7 / RFU, GTPBP10 / Fold change vs veh, GTPBP10 / RFU, CNEP1R1 / Fold change vs veh, CNEP1R1 / RFU, BIVM-ERCC5 /// ERCC5 / Fold change vs veh, BIVM-ERCC5 /// ERCC5 / RFU, ILF3 / Fold change vs veh, ILF3 / RFU 11762660_at / Fold change /veh 11762660_at / RFU VCAN (11757783_s_at) / Fold change /veh VCAN (11757783_s_at) / RFU DDX43 (11728927_at) / Fold change /veh DDX43 (11728927_at) / RFU KRT8 (11758188_x_at) / Fold change /veh KRT8 (11758188_x_at) / RFU NKD1 (11759106_at) / Fold change /veh NKD1 (11759106_at) / RFU SRD5A1 (11742802_a_at) / Fold change /veh SRD5A1 (11742802_a_at) / RFU TPSAB1 /// TPSB2 (11721975_s_at) / Fold change /veh TPSAB1 /// TPSB2 (11721975_s_at) / RFU GSTM3 (11746129_a_at) / Fold change /veh GSTM3 (11746129_a_at) / RFU IL23R (11737362_x_at) / Fold change /veh IL23R (11737362_x_at) / RFU TMEM51 (11727254_a_at) / Fold change /veh TMEM51 (11727254_a_at) / RFU PIWIL2 (11732686_x_at) / Fold change /veh PIWIL2 (11732686_x_at) / RFU ORM1 (11744905_x_at) / Fold change /veh ORM1 (11744905_x_at) / RFU CCDC152 (11743942_at) / Fold change /veh CCDC152 (11743942_at) / RFU ECM1 (11717891_a_at) / Fold change /veh ECM1 (11717891_a_at) / RFU IL23R (11748794_a_at) / Fold change /veh IL23R (11748794_a_at) / RFU TNFAIP8L3 (11732012_x_at) / Fold change /veh TNFAIP8L3 (11732012_x_at) / RFU MBOAT4 (11741988_at) / Fold change /veh MBOAT4 (11741988_at) / RFU 11764193_at / Fold change /veh 11764193_at / RFU TMEM53 (11763286_at) / Fold change /veh TMEM53 (11763286_at) / RFU MAGEB2 (11727129_at) / Fold change /veh MAGEB2 (11727129_at) / RFU TMEM200A (11744735_a_at) / Fold change /veh TMEM200A (11744735_a_at) / RFU CCDC152 (11751479_a_at) / Fold change /veh CCDC152 (11751479_a_at) / RFU FAM211A (11726209_a_at) / Fold change /veh FAM211A (11726209_a_at) / RFU RGS16 (11746705_a_at) / Fold change /veh RGS16 (11746705_a_at) / RFU VCAN (11755009_s_at) / Fold change /veh VCAN (11755009_s_at) / RFU RHOB (11743442_s_at) / Fold change /veh RHOB (11743442_s_at) / RFU RGS16 (11720943_a_at) / Fold change /veh RGS16 (11720943_a_at) / RFU RGS16 (11720944_at) / Fold change /veh RGS16 (11720944_at) / RFU, VPS4B / Fold change vs veh, VPS4B / RFU, CREB1 / Fold change vs veh, CREB1 / RFU, DNAJC13 / Fold change vs veh, DNAJC13 / RFU, GNAQ / Fold change vs veh, GNAQ / RFU, CDK5R1 / Fold change vs veh, CDK5R1 / RFU, ZRANB3 / Fold change vs veh, ZRANB3 / RFU, CUL4A / Fold change vs veh, CUL4A / RFU, CCNY / Fold change vs veh, CCNY / RFU, UFL1 / Fold change vs veh, UFL1 / RFU, COG3 / Fold change vs veh, COG3 / RFU, DIAPH2 / Fold change vs veh, DIAPH2 / RFU, SKA2 / Fold change vs veh, SKA2 / RFU, AFF3 / Fold change vs veh, AFF3 / RFU, LMF1 / Fold change vs veh, LMF1 / RFU, IPO11 / Fold change vs veh, IPO11 / RFU, DFFB / Fold change vs veh, DFFB / RFU, FOXP1 / Fold change vs veh, FOXP1 / RFU, CARD8 / Fold change vs veh, CARD8 / RFU, STRN3 / Fold change vs veh, STRN3 / RFU, ADK / Fold change vs veh, ADK / RFU, RASSF2 / Fold change vs veh, RASSF2 / RFU, WIPF1 / Fold change vs veh, WIPF1 / RFU, LARP1B / Fold change vs veh, LARP1B / RFU, RASA1 / Fold change vs veh, RASA1 / RFU, RB1 / Fold change vs veh, RB1 / RFU, PPFIA1 / Fold change vs veh, PPFIA1 / RFU, MAT2A / Fold change vs veh, MAT2A / RFU, CCT5 / Fold change vs veh, CCT5 / RFU, WDR92 / Fold change vs veh, WDR92 / RFU, CUX1 / Fold change vs veh, CUX1 / RFU, TTC7A / Fold change vs veh, TTC7A / RFU, TMEM135 / Fold change vs veh, TMEM135 / RFU, DEPTOR / Fold change vs veh, DEPTOR / RFU, CPM / Fold change vs veh, CPM / RFU, DNAJB6 / Fold change vs veh, DNAJB6 / RFU, CACNA2D3 / Fold change vs veh, CACNA2D3 / RFU, DTX4 / Fold change vs veh, DTX4 / RFU, TFCP2 / Fold change vs veh, TFCP2 / RFU, GMCL1 /// GMCL1P1 / Fold change vs veh, GMCL1 /// GMCL1P1 / RFU, AEBP2 / Fold change vs veh, AEBP2 / RFU, SNHG1 /// SNORD22 /// SNORD25 /// SNORD26 /// SNORD27 /// SNORD28 /// SNORD29 /// SNORD31 / Fold change vs veh, SNHG1 /// SNORD22 /// SNORD25 /// SNORD26 /// SNORD27 /// SNORD28 /// SNORD29 /// SNORD31 / Fold change (Aza/veh), C12orf56 (ProbeSet 11735607_a_at) / Fold change (ACY-1035/veh), C12orf56 (ProbeSet 11735607_a_at) / Fold change (Aza/veh), FGFR1OP (ProbeSet 11751329_s_at) / Fold change (ACY-1035/veh), FGFR1OP (ProbeSet 11751329_s_at) / Fold change (Aza/veh), VPS36 (ProbeSet 11739960_a_at) / Fold change (ACY-1035/veh), VPS36 (ProbeSet 11739960_a_at) / RFU SYPL1 (11715823_x_at) / Fold change /veh SYPL1 (11715823_x_at) / RFU IGFBP7 (11715501_s_at) / Fold change /veh IGFBP7 (11715501_s_at) / RFU REEP3 (11722064_at) / Fold change /veh REEP3 (11722064_at) / RFU IGLL1 (11728026_x_at) / Fold change /veh IGLL1 (11728026_x_at): dose or concentration left out as unconfirmed
Settings: ProbeSet 11730501_a_at; LIST D

## Nc1ncn([C@@H]2O[C@H](CO)[C@@H](O)[C@H]2O)c(=O)n1 [azacitidine]
  Fold change vs veh, CACNA2D3: 0.63
